The subject of the experiment is Right cardiac atrium. Nature of the experiment: Negative […] activity in electrically-paced Cavia porcellus (guinea pig) right atrium measured immediately by isometric transducer analysis in presence of AM 630. Format: functional, tissue-based.

Calls of active or inactive are those of the source. The calls are words filed in the database; no cut-off is given here.

Regarding `COc1ccccc1CN1CCC(C2CCN(C(=O)CCCCCCC(=O)N3CCC(C4CCN(Cc5ccccc5OC)CC4)CC3)CC2)CC1` [PIPERTRAMINE AMIDE], the result was Active.

Values taken from ChEMBL document CHEMBL3044753, “Polyamines May Modulate Both G Protein-Coupled Receptors and G Proteins” (Med Chem Res, 2004).
